Assay results from EP0726263A2, “Herbicidal (1,3,4)oxadiazoles and thiadiazoles” (American Cyanamid Company, priority 1995, dated 1996).

Key:
Assay type in all cases: in vivo
[1] = tested on: Chenopodium album; experiment: Herbicidal activity, preemergence test; conditions: pre; sprayed onto soil, 800 g of active material per hectare; evaluated 3 weeks after treatment
Method: (§1) To evaluate their herbicidal activity, compounds according to the invention are tested using a representative range of plants: TRZAW Triticum aestivum HORVW Hordeum vulgare ZEAMX Zea mays GOSHI Gossypium hirsutum HELAN Helianthus annuus GLYMA Glycine max ALOMY Alopecurus myosuroides SETVI Setaria viridis ECHCG Echinochloa crus-galli GALAP Galium aparine STEME Stellaria media VERPE Veronica persica VIOAR Viola arvensis IPOHE Ipomoea hederacea LAMPU Lamium purpureum PAPRH Papaver rhoeas MATIN Matricaria inodora AMARE Amaranthus retroflexus ABUTH Abutilon theophrasti AMBEL Ambrosia artemisifolia CHEAL Chenopodium album
(§2) The tests fall into two categories, preemergence and postemergence. The preemergence tests involve spraying a liquid formulation of the compound onto the soil in which the seeds have recently been sown. The postemergence tests involve spraying a liquid formulation of the compound onto seedling plants.
(§3) The soil used in the tests is a prepared horticultural loam.
(§4) The formulations used in the tests are prepared from solutions of the test compounds in acetone containing 0.4% by weight of an alkylphenol/ethylene oxide condensate available under the trade mark TRITON X-155. These acetone solutions are diluted with water and the resulting formulations applied at dosage levels corresponding to 800 g of active material per hectare in a volume equivalent to 900 litres per hectare.
(§5) In the preemergence tests untreated sown soil and in the postemergence tests untreated soil bearing seedling plants are used as controls.
(§6) Results of herbicide evaluation are expressed on a rating scale (0-9). The scale is based upon a visual observation of plant stand, vigor, malformation, size, chlorosis, and general plant appearance as compared to a control. Preemergence and postemergence treatments are evaluated at 3 and 2 weeks after treatment, respectively.

[2] = tested on: Hordeum vulgare; experiment: Herbicidal activity, preemergence test; conditions: pre; sprayed onto soil, 800 g of active material per hectare; evaluated 3 weeks after treatment
Method: as §1, §2, §3, §4, §5, §6

[3] = tested on: Gossypium hirsutum; experiment: Herbicidal activity, preemergence test; conditions: pre; sprayed onto soil, 800 g of active material per hectare; evaluated 3 weeks after treatment
Method: as §1, §2, §3, §4, §5, §6

[4] = tested on: Papaver rhoeas; experiment: Herbicidal activity, preemergence test; conditions: pre; sprayed onto soil, 800 g of active material per hectare; evaluated 3 weeks after treatment
Method: as §1, §2, §3, §4, §5, §6

[5] = tested on: Veronica persica; experiment: Herbicidal activity, preemergence test; conditions: pre; sprayed onto soil, 800 g of active material per hectare; evaluated 3 weeks after treatment
Method: as §1, §2, §3, §4, §5, §6

[6] = tested on: Ambrosia artemisifolia; experiment: Herbicidal activity, preemergence test; conditions: pre; sprayed onto soil, 800 g of active material per hectare; evaluated 3 weeks after treatment
Method: as §1, §2, §3, §4, §5, §6

[7] = tested on: Ipomoea hederacea; experiment: Herbicidal activity, preemergence test; conditions: pre; sprayed onto soil, 800 g of active material per hectare; evaluated 3 weeks after treatment
Method: as §1, §2, §3, §4, §5, §6

[8] = tested on: Alopecurus myosuroides; experiment: Herbicidal activity, preemergence test; conditions: pre; sprayed onto soil, 800 g of active material per hectare; evaluated 3 weeks after treatment
Method: as §1, §2, §3, §4, §5, §6

[9] = tested on: Amaranthus retroflexus; experiment: Herbicidal activity, preemergence test; conditions: pre; sprayed onto soil, 800 g of active material per hectare; evaluated 3 weeks after treatment
Method: as §1, §2, §3, §4, §5, §6

[10] = tested on: Glycine max; experiment: Herbicidal activity, preemergence test; conditions: pre; sprayed onto soil, 800 g of active material per hectare; evaluated 3 weeks after treatment
Method: as §1, §2, §3, §4, §5, §6

[11] = tested on: Triticum aestivum; experiment: Herbicidal activity, preemergence test; conditions: pre; sprayed onto soil, 800 g of active material per hectare; evaluated 3 weeks after treatment
Method: as §1, §2, §3, §4, §5, §6

[12] = tested on: Galium aparine; experiment: Herbicidal activity, preemergence test; conditions: pre; sprayed onto soil, 800 g of active material per hectare; evaluated 3 weeks after treatment
Method: as §1, §2, §3, §4, §5, §6

[13] = tested on: Setaria viridis; experiment: Herbicidal activity, preemergence test; conditions: pre; sprayed onto soil, 800 g of active material per hectare; evaluated 3 weeks after treatment
Method: as §1, §2, §3, §4, §5, §6

[14] = tested on: Abutilon theophrasti; experiment: Herbicidal activity, preemergence test; conditions: pre; sprayed onto soil, 800 g of active material per hectare; evaluated 3 weeks after treatment
Method: as §1, §2, §3, §4, §5, §6

[15] = tested on: Matricaria inodora; experiment: Herbicidal activity, preemergence test; conditions: pre; sprayed onto soil, 800 g of active material per hectare; evaluated 3 weeks after treatment
Method: as §1, §2, §3, §4, §5, §6

[16] = tested on: Stellaria media; experiment: Herbicidal activity, preemergence test; conditions: pre; sprayed onto soil, 800 g of active material per hectare; evaluated 3 weeks after treatment
Method: as §1, §2, §3, §4, §5, §6

[17] = tested on: Lamium purpureum; experiment: Herbicidal activity, preemergence test; conditions: pre; sprayed onto soil, 800 g of active material per hectare; evaluated 3 weeks after treatment
Method: as §1, §2, §3, §4, §5, §6

[18] = tested on: Zea mays; experiment: Herbicidal activity, preemergence test; conditions: pre; sprayed onto soil, 800 g of active material per hectare; evaluated 3 weeks after treatment
Method: as §1, §2, §3, §4, §5, §6

[19] = tested on: Chenopodium album; experiment: Herbicidal activity, postemergence test; conditions: post; sprayed onto seedling plants, 800 g of active material per hectare; evaluated 2 weeks after treatment
Method: as §1, §2, §3, §4, §5, §6

[20] = tested on: Hordeum vulgare; experiment: Herbicidal activity, postemergence test; conditions: post; sprayed onto seedling plants, 800 g of active material per hectare; evaluated 2 weeks after treatment
Method: as §1, §2, §3, §4, §5, §6

[21] = tested on: Gossypium hirsutum; experiment: Herbicidal activity, postemergence test; conditions: post; sprayed onto seedling plants, 800 g of active material per hectare; evaluated 2 weeks after treatment
Method: as §1, §2, §3, §4, §5, §6

[22] = tested on: Papaver rhoeas; experiment: Herbicidal activity, postemergence test; conditions: post; sprayed onto seedling plants, 800 g of active material per hectare; evaluated 2 weeks after treatment
Method: as §1, §2, §3, §4, §5, §6

[23] = tested on: Veronica persica; experiment: Herbicidal activity, postemergence test; conditions: post; sprayed onto seedling plants, 800 g of active material per hectare; evaluated 2 weeks after treatment
Method: as §1, §2, §3, §4, §5, §6

[24] = tested on: Ambrosia artemisifolia; experiment: Herbicidal activity, postemergence test; conditions: post; sprayed onto seedling plants, 800 g of active material per hectare; evaluated 2 weeks after treatment
Method: as §1, §2, §3, §4, §5, §6

[25] = tested on: Ipomoea hederacea; experiment: Herbicidal activity, postemergence test; conditions: post; sprayed onto seedling plants, 800 g of active material per hectare; evaluated 2 weeks after treatment
Method: as §1, §2, §3, §4, §5, §6

[26] = tested on: Alopecurus myosuroides; experiment: Herbicidal activity, postemergence test; conditions: post; sprayed onto seedling plants, 800 g of active material per hectare; evaluated 2 weeks after treatment
Method: as §1, §2, §3, §4, §5, §6

[27] = tested on: Amaranthus retroflexus; experiment: Herbicidal activity, postemergence test; conditions: post; sprayed onto seedling plants, 800 g of active material per hectare; evaluated 2 weeks after treatment
Method: as §1, §2, §3, §4, §5, §6

[28] = tested on: Glycine max; experiment: Herbicidal activity, postemergence test; conditions: post; sprayed onto seedling plants, 800 g of active material per hectare; evaluated 2 weeks after treatment
Method: as §1, §2, §3, §4, §5, §6

[29] = tested on: Triticum aestivum; experiment: Herbicidal activity, postemergence test; conditions: post; sprayed onto seedling plants, 800 g of active material per hectare; evaluated 2 weeks after treatment
Method: as §1, §2, §3, §4, §5, §6

[30] = tested on: Galium aparine; experiment: Herbicidal activity, postemergence test; conditions: post; sprayed onto seedling plants, 800 g of active material per hectare; evaluated 2 weeks after treatment
Method: as §1, §2, §3, §4, §5, §6

[31] = tested on: Setaria viridis; experiment: Herbicidal activity, postemergence test; conditions: post; sprayed onto seedling plants, 800 g of active material per hectare; evaluated 2 weeks after treatment
Method: as §1, §2, §3, §4, §5, §6

[32] = tested on: Abutilon theophrasti; experiment: Herbicidal activity, postemergence test; conditions: post; sprayed onto seedling plants, 800 g of active material per hectare; evaluated 2 weeks after treatment
Method: as §1, §2, §3, §4, §5, §6

[33] = tested on: Matricaria inodora; experiment: Herbicidal activity, postemergence test; conditions: post; sprayed onto seedling plants, 800 g of active material per hectare; evaluated 2 weeks after treatment
Method: as §1, §2, §3, §4, §5, §6

[34] = tested on: Stellaria media; experiment: Herbicidal activity, postemergence test; conditions: post; sprayed onto seedling plants, 800 g of active material per hectare; evaluated 2 weeks after treatment
Method: as §1, §2, §3, §4, §5, §6

[35] = tested on: Lamium purpureum; experiment: Herbicidal activity, postemergence test; conditions: post; sprayed onto seedling plants, 800 g of active material per hectare; evaluated 2 weeks after treatment
Method: as §1, §2, §3, §4, §5, §6

[36] = tested on: Zea mays; experiment: Herbicidal activity, postemergence test; conditions: post; sprayed onto seedling plants, 800 g of active material per hectare; evaluated 2 weeks after treatment
Method: as §1, §2, §3, §4, §5, §6

C[C@H](NC(=O)c1nnc(-c2ccc(F)cc2)o1)c1ccccc1 [Example 7]
CHEAL control rating (0-9) [1]: 8 (approaching complete kill)
HORVW control rating (0-9) [2]: 0 (no effect)
GOSHI control rating (0-9) [3]: 0 (no effect)
PAPRH control rating (0-9) [4]: 9 (complete kill)
VERPE control rating (0-9) [5]: 9 (complete kill)
AMBEL control rating (0-9) [6]: 0 (no effect)
IPOHE control rating (0-9) [7]: 0 (no effect)
ALOMY control rating (0-9) [8]: 4 (injury)
AMARE control rating (0-9) [9]: 9 (complete kill)
GLXMA control rating (0-9) [10]: 1 (trace effect)
TRZAW control rating (0-9) [11]: 0 (no effect)
GALAP control rating (0-9) [12]: 1 (trace effect)
SETVI control rating (0-9) [13]: 9 (complete kill)
ABUTH control rating (0-9) [14]: 8 (approaching complete kill)
MATIN control rating (0-9) [15]: 9 (complete kill)
STEME control rating (0-9) [16]: 9 (complete kill)
LAMPU control rating (0-9) [17]: 9 (complete kill)
ZEAMX control rating (0-9) [18]: 0 (no effect)
CHEAL control rating (0-9) [19]: 9 (complete kill)
HORVW control rating (0-9) [20]: 5 (definite injury)
GOSHI control rating (0-9) [21]: 9 (complete kill)
PAPRH control rating (0-9) [22]: 9 (complete kill)
VERPE control rating (0-9) [23]: 9 (complete kill)
AMBEL control rating (0-9) [24]: 8 (approaching complete kill)
IPOHE control rating (0-9) [25]: 9 (complete kill)
ALOMY control rating (0-9) [26]: 5 (definite injury)
AMARE control rating (0-9) [27]: 9 (complete kill)
GLXMA control rating (0-9) [28]: 8 (approaching complete kill)
TRZAW control rating (0-9) [29]: 4 (injury)
GALAP control rating (0-9) [30]: 7 (good herbicidal effect)
SETVI control rating (0-9) [31]: 9 (complete kill)
ABUTH control rating (0-9) [32]: 9 (complete kill)
MATIN control rating (0-9) [33]: 9 (complete kill)
STEME control rating (0-9) [34]: 9 (complete kill)
LAMPU control rating (0-9) [35]: 9 (complete kill)
ZEAMX control rating (0-9) [36]: 2 (slight effect)
